Reference: PubChem BioAssay (NCI)
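All cell lines were grown in 96-well plates and treated with compound for 48 hours. Here, GI50 denotes the concentration required for 50% inhibition of growth. At the TGI there is no net growth.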

Key:
Test in all cases: NCI tumour cell line growth inhibition, 48 h
SF-268 CNS = tested on: SF-268 CNS
BT-549 breast = tested on: BT-549 breast
PC-3 prostate = tested on: PC-3 prostate
MDA-MB-231 breast = tested on: MDA-MB-231 breast
DU-145 prostate = tested on: DU-145 prostate
NCI-H460 lung = tested on: NCI-H460 lung
SNB-75 CNS = tested on: SNB-75 CNS
RPMI-8226 leukemia = tested on: RPMI-8226 leukemia
NCI/ADR-RES ovarian = tested on: NCI/ADR-RES ovarian
IGROV1 ovarian = tested on: IGROV1 ovarian
KM12 colon = tested on: KM12 colon
OVCAR-3 ovarian = tested on: OVCAR-3 ovarian
SK-OV-3 ovarian = tested on: SK-OV-3 ovarian
SN12C renal = tested on: SN12C renal
HT29 colon = tested on: HT29 colon
UO-31 renal = tested on: UO-31 renal
MALME-3M melanoma = tested on: MALME-3M melanoma
SK-MEL-5 melanoma = tested on: SK-MEL-5 melanoma
UACC-62 melanoma = tested on: UACC-62 melanoma
HS 578T breast = tested on: HS 578T breast
HOP-92 NSCLC = tested on: HOP-92 NSCLC
SNB-19 CNS = tested on: SNB-19 CNS
RXF 393 renal = tested on: RXF 393 renal
COLO 205 colon = tested on: COLO 205 colon
K-562 leukemia = tested on: K-562 leukemia
SW-620 colon = tested on: SW-620 colon
786-0 renal = tested on: 786-0 renal
NCI-H522 lung = tested on: NCI-H522 lung
SK-MEL-28 melanoma = tested on: SK-MEL-28 melanoma
CCRF-CEM leukemia = tested on: CCRF-CEM leukemia
SF-295 CNS = tested on: SF-295 CNS
HCT-116 colon = tested on: HCT-116 colon
HL-60(TB) leukemia = tested on: HL-60(TB) leukemia
CAKI-1 renal = tested on: CAKI-1 renal
MDA-MB-435 = tested on: MDA-MB-435
NCI-H226 lung = tested on: NCI-H226 lung
HCT-15 colon = tested on: HCT-15 colon
NCI-H23 lung = tested on: NCI-H23 lung
A549 NSCLC = tested on: A549 NSCLC
UACC-257 melanoma = tested on: UACC-257 melanoma
OVCAR-4 ovarian = tested on: OVCAR-4 ovarian
OVCAR-5 ovarian = tested on: OVCAR-5 ovarian
T-47D breast = tested on: T-47D breast
SR leukemia = tested on: SR leukemia
HCC-2998 colon = tested on: HCC-2998 colon
U251 CNS = tested on: U251 CNS
TK-10 renal = tested on: TK-10 renal
ACHN renal = tested on: ACHN renal
LOX IMVI melanoma = tested on: LOX IMVI melanoma
HOP-62 NSCLC = tested on: HOP-62 NSCLC
SF-539 CNS = tested on: SF-539 CNS
MOLT-4 leukemia = tested on: MOLT-4 leukemia
MCF7 breast = tested on: MCF7 breast
OVCAR-8 ovarian = tested on: OVCAR-8 ovarian
A498 renal = tested on: A498 renal
M14 melanoma = tested on: M14 melanoma
SK-MEL-2 melanoma = tested on: SK-MEL-2 melanoma

## O=C1NC(=NCc2ccccn2)S/C1=C\c1ccc2ncccc2c1
SF-268 CNS
  GI50: 8.5 µM
  TGI: > 25 µM
BT-549 breast
  GI50: 9.23 µM
  TGI: > 25 µM
PC-3 prostate
  GI50: > 25 µM
  TGI: > 25 µM
MDA-MB-231 breast
  GI50: 17.8 µM
  TGI: > 25 µM
DU-145 prostate
  GI50: 9.81 µM
  TGI: > 25 µM
NCI-H460 lung
  GI50: 9.07 µM
  TGI: > 25 µM
SNB-75 CNS
  GI50: 4.21 µM
  TGI: 22.4 µM
RPMI-8226 leukemia
  GI50: > 12.6 µM
  TGI: > 25 µM
NCI/ADR-RES ovarian
  GI50: 16.9 µM
  TGI: > 25 µM
IGROV1 ovarian
  GI50: 17.8 µM
  TGI: > 25 µM
KM12 colon
  GI50: 13.2 µM
  TGI: > 25 µM
OVCAR-3 ovarian
  GI50: 12.6 µM
  TGI: > 25 µM
SK-OV-3 ovarian
  GI50: 8.59 µM
  TGI: > 23.5 µM
SN12C renal
  GI50: 10.8 µM
  TGI: > 25 µM
HT29 colon
  GI50: 15 µM
  TGI: > 25 µM
UO-31 renal
  GI50: 11.3 µM
  TGI: > 25 µM
MALME-3M melanoma
  GI50: > 13.1 µM
  TGI: > 23.3 µM
SK-MEL-5 melanoma
  GI50: 13 µM
  TGI: > 25 µM
UACC-62 melanoma
  GI50: > 17.5 µM
  TGI: > 25 µM
HS 578T breast
  GI50: 6.12 µM
  TGI: 21.4 µM
HOP-92 NSCLC
  GI50: 6.5 µM
  TGI: > 21.8 µM
SNB-19 CNS
  GI50: 10.7 µM
  TGI: > 25 µM
RXF 393 renal
  GI50: 8.8 µM
  TGI: > 25 µM
COLO 205 colon
  GI50: 7.68 µM
  TGI: > 25 µM
K-562 leukemia
  GI50: 8.29 µM
  TGI: > 25 µM
SW-620 colon
  GI50: 7.81 µM
  TGI: > 25 µM
786-0 renal
  GI50: 13.4 µM
  TGI: > 25 µM
NCI-H522 lung
  GI50: 7.61 µM
  TGI: > 18.8 µM
SK-MEL-28 melanoma
  GI50: > 23.7 µM
  TGI: > 25 µM
CCRF-CEM leukemia
  GI50: 10.7 µM
  TGI: > 25 µM
SF-295 CNS
  GI50: 14.7 µM
  TGI: > 25 µM
HCT-116 colon
  GI50: 8.86 µM
  TGI: > 25 µM
HL-60(TB) leukemia
  GI50: 6.56 µM
  TGI: > 25 µM
CAKI-1 renal
  GI50: 6.62 µM
  TGI: > 18.9 µM
MDA-MB-435
  GI50: 7.64 µM
  TGI: > 21.9 µM
NCI-H226 lung
  GI50: 15 µM
  TGI: > 25 µM
HCT-15 colon
  GI50: 6.86 µM
  TGI: > 25 µM
NCI-H23 lung
  GI50: 12.1 µM
  TGI: > 25 µM
A549 NSCLC
  GI50: 8.41 µM
  TGI: > 25 µM
UACC-257 melanoma
  GI50: > 12.7 µM
  TGI: > 25 µM
OVCAR-4 ovarian
  GI50: 9.74 µM
  TGI: 24.7 µM
OVCAR-5 ovarian
  GI50: > 25 µM
  TGI: > 25 µM
T-47D breast
  GI50: 11.2 µM
  TGI: > 25 µM
SR leukemia
  GI50: 6 µM
  TGI: 24.8 µM
HCC-2998 colon
  GI50: 13.8 µM
  TGI: > 25 µM
U251 CNS
  GI50: 7.87 µM
  TGI: > 25 µM
TK-10 renal
  GI50: 6.06 µM
  TGI: > 20.2 µM
ACHN renal
  GI50: 10.2 µM
  TGI: > 25 µM
LOX IMVI melanoma
  GI50: 13.1 µM
  TGI: > 25 µM
HOP-62 NSCLC
  GI50: 13.2 µM
  TGI: > 25 µM
SF-539 CNS
  GI50: 7.54 µM
  TGI: > 25 µM
MOLT-4 leukemia
  GI50: 11.3 µM
  TGI: > 25 µM
MCF7 breast
  GI50: 8.75 µM
  TGI: > 25 µM
OVCAR-8 ovarian
  GI50: 14.4 µM
  TGI: > 25 µM
A498 renal
  GI50: 3.95 µM
  TGI: > 18.8 µM
M14 melanoma
  GI50: 11.6 µM
  TGI: > 25 µM
SK-MEL-2 melanoma
  GI50: 10.7 µM
  TGI: > 22.8 µM
